Reference: paper PMC10870261, “Photoinduced Hydrogel-Forming Caged Peptides with Improved Solubility” (ACS Omega, 2024)
One block for each compound: values may come before it. Residues, ends and D or L forms follow the SMILES beside them. *: point of attachment. X1 = O=C(COC(=O)*)c1ccc(O)cc1

How the values were obtained:
[1] = test system: A2058 human melanoma cell line; test: CellTiterGlo viability assay, cells in 2D monolayer or in peptide hydrogel (3D); format: cell-based; conditions: HPAA 1 mM, 96 h, normalized to 2D control, n = 3
Description: Human melanoma cell line A2058 was obtained from the European Collection of Authenticated Cell Cultures (ECACC, Salisbury, UK) and was cultured in RPMI 1640 medium supplemented with 10% (v/v %) fetal bovine serum (Biosera Europe, Nuaillé, France), 1% L-glutamine, and 1% penicillin/streptomycin (Gibco, Invitrogen Corporation, New York, USA). Cells were propagated in standard cell culture conditions (37 °C, 5% CO2).
Peptides were dissolved in PBS (1×) at a 1.2 mM concentration. 50–50 μL of the resulting stock solution was added to a 96-well, optical bottom plate. […]
Viability tests were performed using CellTiterGlo (Promega, Madison, WI, USA) reagent to determine the quantity of viable cells in both 2D setups and in hydrogels. […] The luminescence signal was measured by a Fluoroskan FL microplate fluorometer and luminometer (Thermo Scientific, Waltham, MA, USA). […] All quantitative data are presented as the mean ± standard deviation (SD). The results were evaluated with MS Excel and OriginPro 2020 software (OriginLab Corporation, Northampton, MA, USA).
Results were evaluated using MS Excel and OriginPro 2020 software (OriginLab Corp., Northampton, MA, USA). […] Data were statistically analyzed using one-way analysis of variance followed by Tukey’s posthoc test. […]

[2] = Solubility and handling (observation during purification, spectroscopic measurement); format: physicochemical; conditions: aqueous / PBS, qualitative
Description: To support this change in “behavior” of the caged derivative, spectroscopic (transmittance) measurements were conducted, which confirmed the suppressed aggregation compared to the nonprotected peptide (Figure 1).
Therefore, its purification and characterization could be carried out in the usual way as for peptides (e.g., RP-HPLC and LC–MS).

[3] = test system: A2058 human melanoma cell line; test: Fluorescence microscopy of cellular arrangement in hydrogels (acridine orange); format: cell-based; conditions: A2058 cells, 96 h, acridine orange 0.1 mM, 10× magnification, Z-stacks
Description: Peptides were dissolved in PBS (1×) at a 1.2 mM concentration. 50–50 μL of the resulting stock solution was added to a 96-well, optical bottom plate. The plate was illuminated with an UV lamp (Sylvania 254 nm, 8 W) for 20 min, followed by the distribution of 50–50 μL of RPMI-1640 medium [supplemented with 10% (v/v %) FBS and 1% L-glutamine, 1% penicillin/streptomycin] into the wells. Then, the plate was incubated for 1 h. For the 3D microscopic imaging of the hydrogels, cells were treated with acridine orange (at 0.1 mM) and incubated for 30 min. Fluorescence measurements were carried out on a Zeiss Celldiscoverer 7 (Zeiss, Jena, Germany) using 10× magnification (Plan-Apochromat λ/0.35 NA objective with 2× tube lens) and acquisition of Z-stacks with 10 μm intervals between individual planes. The images were processed by using ZEN Blue 2.6 software (Carl Zeiss AG, Jena, Germany). Figure 4 (A) Viability of the A2058 human melanoma cell line in native EAK-16-II and caged peptide hydrogels as well as in monolayer (2D) after 96 h. Cell viability was measured using CellTiterGlo assay (Promega, Madison, WI, USA) and normalized to 2D growing cells (control cells) (normalized live cells = 100%). Data are presented as mean values ± standard deviation (SD) from three independent experiments. (B) 3D representation of cellular arrangements in both types of hydrogels. […]

[4] = Optical transmittance (turbidity) in PBS; format: physicochemical; conditions: 300 μM in PBS (pH 7.4, 1×), 25 °C, 532 nm, after the starting point
Description: Transmittance was measured using an UV–vis spectrophotometer (Jasco V-650, Jasco, Cremella, Italy) in phosphate-buffered saline (PBS, pH 7.4, 1×) buffer.  Figure 1 Optical transmittance of native (nonprotected) EAK16-II peptide and caged-EAK16-II (300 μM) in PBS, 25 °C, 532 nm, 8 h. […] These turbidity measurements were conducted at a 300 μM concentration, which was also used for in vitro experiments.

[5] = cited from earlier work
Description: These turbidity measurements were conducted at a 300 μM concentration, which was also used for in vitro experiments.

Compound: O=C(O)Cc1ccc(O)cc1 [HPAA, p-hydroxyphenylacetic acid]
In vitro cytotoxicity, monolayer (2D) ([1]; A2058 cells in 2D (plastic surface)): did not have any long-term toxic effect
In vitro cytotoxicity, in EAK16-II hydrogel (3D) ([1]; A2058 cells in EAK16-II (300 μM) hydrogel): did not have any long-term toxic effect

Solubility [2]: good solubility
Compound: CC(=O)N[C@@H](C)C(=O)N[C@@H](CCC(=O)O)C(=O)N[C@@H](C)C(=O)N[C@@H](CCC(=O)O)C(=O)N[C@@H](C)C(=O)N[C@@H](CCCCNC(=O)OCC(=O)c1ccc(O)cc1)C(=O)N[C@@H](C)C(=O)N[C@@H](CCCCN)C(=O)N[C@@H](C)C(=O)N[C@@H](CCC(=O)O)C(=O)N[C@@H](C)C(=O)N[C@@H](CCC(=O)O)C(=O)N[C@@H](C)C(=O)N[C@@H](CCCCNC(=O)OCC(=O)c1ccc(O)cc1)C(=O)N[C@@H](C)C(=O)N[C@@H](CCCCN)C(N)=O [caged-EAK16-II] (Ac-AEAEAK(X1)AKAEAEAK(X1)AK-NH2)

Time to "microgelatinization" (sedimentation of peptide aggregates, increase in transmittance) [4]: Around 10 min
Compound: Ac-AEAEAKAKAEAEAKAK-NH2 [EAK16-II]
Cellular arrangement (cellular aggregate formation) in hydrogel [3]: distinct cellular aggregates
Critical aggregating concentration [5]: 0.1 mg/mL
